Assay results from ChEMBL document CHEMBL4017543, “Inhibitors to Overcome Secondary Mutations in the Stem Cell Factor Receptor KIT” (J Med Chem, 2017).
The source made the active and inactive calls. The calls are words filed in the database; no cut-off is given here.

What was measured:
[1] = biological target: T1, Mast/stem cell growth factor receptor Kit (Homo sapiens, UniProt P10721, V559D/V654A)
[2] = biological target: Mast/stem cell growth factor receptor Kit (Homo sapiens, UniProt P10721); experiment: Inhibition of wild type KIT (unknown origin) using biotinylated poly-Glu-Tyr as substrate preincubated for 30 mins followed by substrate addition in presence of ATP by TR-FRET assay
Chain of Mast/stem cell growth factor receptor Kit (Homo sapiens, UniProt P10721) (P10721 whole entry): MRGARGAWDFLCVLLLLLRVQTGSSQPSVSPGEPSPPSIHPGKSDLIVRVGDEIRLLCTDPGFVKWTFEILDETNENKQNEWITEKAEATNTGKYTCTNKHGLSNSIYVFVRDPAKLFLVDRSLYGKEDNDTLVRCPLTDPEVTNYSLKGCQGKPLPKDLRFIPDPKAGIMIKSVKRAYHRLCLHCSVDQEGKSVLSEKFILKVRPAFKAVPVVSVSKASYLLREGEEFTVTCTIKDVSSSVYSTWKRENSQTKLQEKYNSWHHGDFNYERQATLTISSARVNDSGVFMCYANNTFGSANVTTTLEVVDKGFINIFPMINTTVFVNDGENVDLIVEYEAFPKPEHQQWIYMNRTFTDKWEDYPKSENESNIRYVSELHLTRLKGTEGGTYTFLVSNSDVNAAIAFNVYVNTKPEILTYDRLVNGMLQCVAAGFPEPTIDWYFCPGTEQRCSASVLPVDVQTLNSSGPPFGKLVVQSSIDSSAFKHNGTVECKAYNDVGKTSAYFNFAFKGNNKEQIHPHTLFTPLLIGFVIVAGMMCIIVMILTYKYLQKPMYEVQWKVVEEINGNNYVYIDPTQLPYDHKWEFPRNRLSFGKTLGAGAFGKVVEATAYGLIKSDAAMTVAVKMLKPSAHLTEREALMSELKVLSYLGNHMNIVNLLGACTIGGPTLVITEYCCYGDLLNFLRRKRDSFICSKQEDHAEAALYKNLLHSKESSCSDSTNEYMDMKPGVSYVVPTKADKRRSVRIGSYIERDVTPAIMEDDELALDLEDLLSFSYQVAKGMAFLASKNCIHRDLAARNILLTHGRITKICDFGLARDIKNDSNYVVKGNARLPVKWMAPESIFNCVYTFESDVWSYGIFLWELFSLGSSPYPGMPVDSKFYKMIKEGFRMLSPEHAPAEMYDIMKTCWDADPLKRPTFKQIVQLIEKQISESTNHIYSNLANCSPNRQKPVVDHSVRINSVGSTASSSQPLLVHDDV

GISTT1 [3] = experiment: Cytotoxicity against human GISTT1 cells harboring KIT T670I mutant assessed as cell growth inhibition after 72 hrs by CellTiterGlo assay; type: functional; details: GISTT1, 72 h
GISTT1 [4] = experiment: Cytotoxicity against human GISTT1 cells assessed as cell growth inhibition after 72 hrs by CellTiterGlo assay; type: functional; details: GISTT1, 72 h
[5] = biological target: Mast/stem cell growth factor receptor Kit (Homo sapiens, UniProt P10721, V559D/T670I)
Chain of Mast/stem cell growth factor receptor Kit (Homo sapiens, UniProt P10721, V559D/T670I) (P10721 26-976 V559D/T670I limits assumed): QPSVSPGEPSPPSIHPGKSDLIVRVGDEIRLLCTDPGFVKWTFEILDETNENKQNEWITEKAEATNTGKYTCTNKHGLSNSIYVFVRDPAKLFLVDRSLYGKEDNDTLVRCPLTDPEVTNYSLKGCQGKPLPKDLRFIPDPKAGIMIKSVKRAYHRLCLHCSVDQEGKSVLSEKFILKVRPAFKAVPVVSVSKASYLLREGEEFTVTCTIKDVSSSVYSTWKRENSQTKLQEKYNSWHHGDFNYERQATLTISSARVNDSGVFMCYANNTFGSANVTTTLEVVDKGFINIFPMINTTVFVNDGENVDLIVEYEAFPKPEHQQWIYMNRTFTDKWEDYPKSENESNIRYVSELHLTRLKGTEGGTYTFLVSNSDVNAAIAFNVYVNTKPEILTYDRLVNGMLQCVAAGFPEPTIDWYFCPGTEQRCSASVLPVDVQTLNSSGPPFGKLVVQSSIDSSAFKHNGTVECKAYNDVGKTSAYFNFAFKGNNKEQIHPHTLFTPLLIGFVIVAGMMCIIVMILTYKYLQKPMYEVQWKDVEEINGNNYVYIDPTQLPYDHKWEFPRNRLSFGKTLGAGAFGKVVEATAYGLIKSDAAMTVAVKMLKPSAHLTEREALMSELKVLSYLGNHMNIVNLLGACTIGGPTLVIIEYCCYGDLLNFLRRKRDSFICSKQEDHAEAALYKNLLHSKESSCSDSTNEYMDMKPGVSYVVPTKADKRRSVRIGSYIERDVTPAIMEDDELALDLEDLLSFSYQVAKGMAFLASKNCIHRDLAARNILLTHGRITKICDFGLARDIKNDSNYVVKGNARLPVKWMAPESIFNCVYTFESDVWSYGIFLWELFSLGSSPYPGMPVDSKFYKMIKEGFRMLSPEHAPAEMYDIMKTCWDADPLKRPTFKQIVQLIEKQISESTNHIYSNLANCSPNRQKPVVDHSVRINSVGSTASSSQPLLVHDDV

GISTT1 [6] = experiment: Cytotoxicity against human GISTT1 cells harboring KIT D816E mutant assessed as cell growth inhibition after 72 hrs by CellTiterGlo assay; type: functional; details: GISTT1, 72 h
[7] = Cytotoxicity against human GIST48B cells assessed as cell growth inhibition after 72 hrs by CellTiterGlo assay; type: cell-based; details: for GI50 at 72 h: GIST48B cells; for GI50: gist48b, 72 h
[8] = test system: Mast/stem cell growth factor receptor Kit (Homo sapiens), P10721 [V654A]; details: GIST430
Chain of Mast/stem cell growth factor receptor Kit (Homo sapiens), P10721 [V654A] (P10721 whole entry V654A): as the sequence (P10721 whole entry) above, with V654A counted along it

[9] = biological target: Mast/stem cell growth factor receptor Kit (Homo sapiens, UniProt P10721, D816H); experiment: Inhibition of KIT D816H mutant (unknown origin) using biotinylated poly-Glu-Tyr as substrate preincubated for 30 mins followed by substrate addition in presence of ATP by TR-FRET assay
Chain of Mast/stem cell growth factor receptor Kit (Homo sapiens, UniProt P10721, D816H) (P10721 26-976 D816H limits assumed): as the sequence (P10721 26-976 V559D/T670I limits assumed) above, with D534V, I645T, D791H counted along it

GISTT1 [10] = details: Homo sapiens
[11] = biological target: Mast/stem cell growth factor receptor Kit (Homo sapiens, UniProt P10721, T670I/V559D)
Chain of Mast/stem cell growth factor receptor Kit (Homo sapiens, UniProt P10721, T670I/V559D) (P10721 26-976 V559D/T670I limits assumed): as the sequence (P10721 26-976 V559D/T670I limits assumed) above

[12] = biological target: T1, Mast/stem cell growth factor receptor Kit; remark: listed apart in the source

T1 sequence (P10721 26-976 V559D/V654A limits assumed): as the sequence (P10721 26-976 V559D/T670I limits assumed) above, with V629A, I645T counted along it

Compound	IC50 [1]	IC50 [2] [nM]	GI50 (GISTT1 [3]) [nM]	GI50 (GISTT1 [4]) [nM]	IC50 [5]	GI50 (GISTT1 [6]) [nM]	GI50 at 72 h [7] [nM]	GI50 [8]	IC50 [9]	GI50 [7]	GI50 (GISTT1 [10])	IC50 ([9]; read-out: IC50) [nM]	IC50 [11] [nM]	IC50 [12] [nM]
Cc1ccc(C(=O)Nc2ccc(CN3CCN(C)CC3)c(F)c2)cc1C#Cc1cccnc1	Not Active	2.3	3290	57	Not Active	5360	12000	1640 nM	Not Active	–	–	–	–	–
Cc1ccc(C(=O)Nc2ccc(CN3CCN(C)CC3)cc2)cc1C#Cc1ccccn1	Not Active	240	12500	7100	Not Active	–	–	inactive	Not Active	Not Active	inactive	–	–	–
Cc1ccc(C(=O)Nc2ccc(CN3CCN(C)CC3)c(F)c2)cc1C#Cc1cnc(N)nc1	Not Active	6.5	1360	31	Not Active	904	8280	920 nM	–	–	–	1710	–	–
Cc1ccc(C(=O)Nc2ccc(CN3CCN(C)CC3)c(C(F)(F)F)c2)cc1C#Cc1cccnc1	–	2.1	76	51	–	332	2700	333 nM	–	–	–	138	24	1100
COCCNc1ncc(C#Cc2cc(C(=O)Nc3ccc(CN4CCN(C)CC4)c(C(F)(F)F)c3)ccc2C)cn1	–	3.3	198	119	–	704	5130	481 nM	–	–	–	2610	107	252
Cc1ccc(C(=O)Nc2ccc(CN3CCN(C)CC3)c(C(F)(F)F)c2)cc1C#Cc1cnc(N)c(C)c1	–	2.1	117	59	–	474	2090	307 nM	–	–	–	99.3	29.8	777
Cc1ccc(C(=O)Nc2ccc(CN3CCN(C)CC3)c(C(F)(F)F)c2)c(F)c1I	Not Active	184	9510	5730	Not Active	–	3630	inactive	Not Active	–	inactive	–	–	–
CCc1c(I)cccc1C(=O)Nc1ccc(CN2CCN(C)CC2)c(C(F)(F)F)c1	Not Active	1040	7610	11000	Not Active	–	9940	15900 nM	Not Active	–	inactive	–	–	–
C#Cc1cc(C(=O)Nc2ccc(CN3CCN(C)CC3)c(C(F)(F)F)c2)ccc1C	Not Active	231	10100	7840	Not Active	–	–	inactive	Not Active	Not Active	inactive	–	–	–
Cc1ccc(C(=O)Nc2ccc(CN3CCN(C)CC3)c(C(F)(F)F)c2)cc1C#Cc1ccn2ccnc2c1	Not Active	1.6	184	59	–	2290	3040	723 nM	Not Active	–	–	–	72	–
Cc1ccc(C(=O)Nc2ccc(CN3CCN(C)CC3)c(C(F)(F)F)c2)cc1C#Cc1ccn2cnnc2c1	Not Active	2.5	2970	282	–	–	4150	4140 nM	Not Active	–	inactive	–	2150	–
CCN(CC)CCNC(=O)c1c(C)[nH]c(/C=C2\C(=O)Nc3ccc(F)cc32)c1C [SUNITINIB]	–	–	90	40	–	5880	–	–	–	Not Active	–	–	–	–
Cc1ccc(C(=O)Nc2ccc(CN3CCN(C)CC3)c(C(F)(F)F)c2)cc1C#Cc1ccc(N)nn1	Not Active	5.8	89	54	–	580	6250	459 nM	–	–	–	2270	150	–
COc1cccnc1C#Cc1cc(C(=O)Nc2ccc(CN3CCN(C)CC3)c(C(F)(F)F)c2)ccc1C	Not Active	6.7	165	82	–	991	3790	564 nM	Not Active	–	–	–	159	–
Cc1ccc(C(=O)Nc2ccc(CN3CCN(C)CC3)c(C(F)(F)F)c2)cc1I	Not Active	6.8	3340	896	Not Active	9890	4880	3900 nM	Not Active	–	–	–	–	–
Cc1ccc(C(=O)Nc2ccc(CN3CCN(C)CC3)c(C(F)(F)F)c2)cc1C#Cc1ccccn1	Not Active	3.5	97	55	–	1670	3630	697 nM	Not Active	–	–	–	116	–
Cc1ccc(C(=O)Nc2ccc(CN3CCN(C)CC3)cc2)cc1C#Cc1cnc(N)nc1	Not Active	2.6	1220	33	Not Active	1270	6880	2060 nM	Not Active	–	–	–	–	–
Cc1ccc(C(=O)Nc2ccc(CN3CCN(C)CC3)cc2)cc1C#Cc1cccnc1	Not Active	3.3	6350	150	Not Active	9610	–	4030 nM	Not Active	Not Active	–	–	–	–
Cc1ccc(C(=O)Nc2ccc(CN3CCN(C)CC3)c(C(F)(F)F)c2)cc1C#Cc1ccc(OCc2ccccc2)cn1	Not Active	121	4380	121	Not Active	–	1860	2000 nM	Not Active	–	inactive	–	–	–
Cc1ccc(C(=O)Nc2ccc(CN3CCN(C)CC3)c(C(F)(F)F)c2)c(C)c1I	Not Active	556	15300	10000	Not Active	–	–	inactive	Not Active	Not Active	inactive	–	–	–
